Laboratory results reported in ChEMBL document CHEMBL3988442, “University of Dundee, Small-Polar-MMV Screening Library” (2021).

Legend:
[1] = microbe, parasite or virus in culture; details: Mycobacterium tuberculosis, 72 h, read-out: pIC50 (converted)
[2] = microbe, parasite or virus in culture; details: Mycobacterium tuberculosis, 96 h, read-out: pIC50 (converted)

| SMILES | IC50 [1] [µM] | IC50 [2] [µM] |
| --- | --- | --- |
| C=C(C)CSc1nnc(CCNC(=O)OC(C)(C)C)o1 | 40.4 | 5.84 |
| CCSc1nc2ccccc2c(=O)n1OCC(=O)OC | 24.9 | > 50.1 |
| COC(=O)COn1c(SC(C)C)nc2ccccc2c1=O | 43.2 | > 50.1 |
| CN1CCOC[C@H]1c1nc(-c2cccnc2)c[nH]1 | > 50.1 | > 50.1 |
| Cc1ccc2c(c1)nc1n2[C@@H](CNC(=O)c2cccnc2)COC1 | > 50.1 | > 50.1 |
| COc1ccc(CN2CCOC[C@H](OCCC(C)C)C2)cc1 | > 50.1 | > 50.1 |
| FC(F)(F)c1ccccc1CN1CCOC[C@H](Oc2cccnc2)C1 | 48 | 18.7 |
| COc1ccc(CN2C[C@H]3CN(C(=O)c4ccno4)CCN3C2=O)cc1 | > 50.1 | > 50.1 |
| O=C(c1ccno1)N1CCOC[C@H](Oc2ccc(C(F)(F)F)cc2)C1 | > 50.1 | > 50.1 |
| CS(=O)(=O)NC[C@H]1Cn2c(-c3ccc(Cl)cc3)cnc2CO1 | > 50.1 | > 50.1 |
| CN(C)[C@H]1C[C@@H](Cc2cc(-c3ccc(F)cc3)on2)C1(C)C | > 50.1 | > 50.1 |
| Cc1ccc(CN2CC[C@H](c3nnc(COc4ccc(F)cc4)o3)C2)o1 | > 50.1 | 37.2 |
| FC(F)(F)c1ccc2nc([C@H]3CCN(C4CCCCC4)C3)[nH]c2c1 | 27.5 | 24.9 |
| CCn1nnc(NCc2ccccc2OCc2ccc(Cl)cc2)n1 | > 50.1 | 0.308 |
| CCCc1nc2c(c(C)c(C)n2Cc2ccncc2)c(N)c1CC | > 50.1 | > 50.1 |
| O=C(NCCc1c[nH]c2ccccc12)C1(n2cnnn2)CCCCC1 | 47.6 | > 50.1 |
| Cc1cnc(NC(=O)c2csc(NC3CCCC3)n2)s1 | > 50.1 | > 50.1 |
| O=C(Nc1ccccn1)c1csc(NC2CCCC2)n1 | 46.7 | 26.1 |
| Cc1cccc(C)c1NC(=O)CC(CN1CCN(C)CC1)C(=O)O (configuration not stated) | 32.8 | > 50.1 |
| O=C(NCCc1c[nH]c2ccc(F)cc12)C1(n2cnnn2)CCCCC1 | 46.3 | 28 |
| Cn1cc(NC(=O)CNC(=O)N2CCN(c3ccccc3)CC2)cn1 | > 50.1 | > 50.1 |
| O=C(NCC(=O)N1CCc2ccccc2C1)c1cnccn1 | > 50.1 | > 50.1 |
| COC(=O)CNC(=O)c1nc(Br)sc1C(C)C | > 50.1 | > 50.1 |
| CCOc1nn(CC)cc1-c1nnc(SCc2ccccn2)n1C | 25.4 | > 50.1 |

| SMILES | IC50 [1] [µM] | IC50 [2] [µM] |
| --- | --- | --- |
| O=C(c1cc(C2CC2)on1)N1CCC(Oc2ncccc2Cl)CC1 | 48.7 | 24.9 |
| O=C(CCC(=O)N1CCC(Oc2ncccc2Br)CC1)c1ccccc1 | 34.6 | 45.4 |
| O=C(c1cc(C2CC2)on1)N1CCC(Oc2ncccc2Br)CC1 | > 50.1 | 24.2 |
| O=S(=O)(NCCNc1ccc(-n2cccc2)nn1)c1ccccc1 | 15.5 | 16.5 |
| O=S(=O)(NCCNc1ccc(-n2cccc2)nn1)c1cccs1 | 14 | 13.4 |
| COc1cc(C(=O)NCCCc2ccccc2)on1 | > 50.1 | > 50.1 |
| COc1cc(C(=O)NCCc2ccc(Cl)cc2)on1 | 4.56 | > 50.1 |
| COCCN(Cc1ccoc1)S(=O)(=O)c1ccc(F)c(Cl)c1 | > 50.1 | > 50.1 |
| COC1(CNC(=O)c2cccc(C#N)c2)CCSC1 (configuration not stated) | > 50.1 | > 50.1 |
| Cc1nsc(C(=O)NCCc2ccccc2)n1 | 15.5 | 20.9 |
| Cc1nsc(C(=O)NCCCc2ccccc2)n1 | > 50.1 | 47.1 |
| Cc1nsc(C(=O)NCCc2ccc(Cl)cc2)n1 | 19.4 | 12.7 |
| Cc1nsc(C(=O)NCCc2ccc(F)cc2)n1 | 1.84 | 12.5 |
| Cc1nsc(C(=O)NCCc2cccs2)n1 | 13.5 | 32.7 |
| COc1ccc(CC(=O)Nc2c(C)nc(N3CCCC3)nc2C)cc1 | > 50.1 | > 50.1 |
| O=C(Cc1cccs1)Nc1cnn(C2CCOC2)c1 (configuration not stated) | > 50.1 | > 50.1 |
| CC(=O)NCC(=O)N1CCc2nc(-c3ccccc3)nc(C)c2CC1 | > 50.1 | > 50.1 |
| Cc1nc(NC(C)C)nc2c1CN(Cc1cccs1)CC2 | > 50.1 | 27 |
| CC(=O)NCc1noc2c1CN(Cc1ccsc1)CC2 | > 50.1 | > 50.1 |
| Cn1c2c(c(=O)n1C)CN(C(=O)c1ccco1)CCC2 | > 50.1 | > 50.1 |
| CC(C)n1cnc(C2CN(C)c3ccc(C(=O)NCC4CC4)cc32)n1 (configuration not stated) | > 50.1 | > 50.1 |
| CC(C)CNC(=O)c1cc2c(s1)CCN2Cc1cccnc1 | > 50.1 | > 50.1 |
| O=C(NC1CC1)c1nc2c(s1)CCCN2c1ccccc1 | > 50.1 | 14.2 |
| Fc1cnc(N2CCOCC3(CCCN(c4cnccn4)C3)C2)nc1 (configuration not stated) | > 50.1 | > 50.1 |

| SMILES | IC50 [1] [µM] | IC50 [2] [µM] |
| --- | --- | --- |
| O=C1CC2(CCN(Cc3cccs3)C2)CN1c1cccc(F)c1 (configuration not stated) | 1.43 | 18.6 |
| O=C(CC1CC1)N[C@@H]1CN(Cc2ccoc2)C[C@@H]2CCCO[C@@H]21 | > 50.1 | > 50.1 |
| Cc1cc(C(=O)NCC2Cn3nnc(C)c3CO2)no1 (configuration not stated) | > 50.1 | > 50.1 |
| CCN1C(=O)C2(CCOCC2)c2cc(NC(=O)c3cnoc3C)ccc21 | > 50.1 | > 50.1 |
| Cc1cc(C)c(C#N)c(N2CCC(Cc3ccccc3)CC2)n1 | > 50.1 | > 50.1 |
| CCCN(CCn1c(=O)oc2ccccc21)CC1CC1 | > 50.1 | > 50.1 |
| N#CCCSc1nnc(Cc2ccccc2F)o1 | > 50.1 | > 50.1 |
| CCc1cc2c(N3CCCC(c4ccn[nH]4)C3)ncnc2s1 (configuration not stated) | 9.09 | 12.6 |
| CCOCCSc1nnc(Cc2ccccc2F)o1 | 33.5 | 27.5 |
| CCc1nc(CN2CCCN(Cc3noc(C4CC4)n3)CC2)cs1 | > 50.1 | > 50.1 |
| COCc1ccc(CNc2cnn(C(C)(C)C)c(=O)c2Cl)cc1 | > 50.1 | 15.3 |
| COc1ccc(-n2cc(CNC(=O)c3ccccn3)nn2)cc1 | > 50.1 | > 50.1 |
| Cc1cnn(C2CN(c3ccccc3S(=O)(=O)C(F)(F)F)C2)c1 | 10.2 | 29.4 |
| CC(C)c1nc(CSc2nnc(-c3cccs3)n2CC(N)=O)no1 | 30.9 | > 50.1 |
| CC(C)c1nnc(CN2CC(n3cccn3)Cc3ccccc32)o1 (configuration not stated) | > 50.1 | > 50.1 |
| Cc1ccc(-c2cc(CS(=O)(=O)NC3CCCNC3=O)on2)cc1 (configuration not stated) | > 50.1 | > 50.1 |
| CCOCCNC(=O)Nc1ccc(OCc2noc(C3CC3)n2)cc1 | > 50.1 | > 50.1 |
| CCc1noc(CSc2n[nH]c(-c3ccccn3)n2)n1 | > 50.1 | 25.1 |
| CC(C)c1csc(C(=O)N(C)c2ccc(Br)cn2)n1 | 21.7 | 25.3 |
| CCCC(C)N(C)Cc1nnc(-c2ccc(Br)s2)o1 (configuration not stated) | 1.85 | 29.4 |
| CCOCCN(C)C(c1cccnc1)c1ccc(F)cc1F (configuration not stated) | > 50.1 | > 50.1 |
| CC(C)C(C)N(C)Cc1nnc(-c2ccc(Br)s2)o1 (configuration not stated) | 48.4 | 20.4 |
| CC(C1CC1)N(C)Cc1nnc(-c2ccc(Br)s2)o1 (configuration not stated) | 2.95 | 42.1 |
| CN(C)c1nc(N)nc(CN2CCCC(c3ccccc3)CC2)n1 (configuration not stated) | > 50.1 | > 50.1 |

| SMILES | IC50 [1] [µM] | IC50 [2] [µM] |
| --- | --- | --- |
| Cc1cc(NCCC(=O)NC(C)C)nc(-c2ccncc2)n1 | > 50.1 | > 50.1 |
| Cc1nc(-c2nnc[nH]2)sc1C(=O)N1CCCC1Cn1cccn1 (configuration not stated) | > 50.1 | > 50.1 |
| c1cnc(-c2nc(C3CCOC3)no2)cn1 (configuration not stated) | > 50.1 | > 50.1 |
| CC(C)CC(C)N(C)Cc1nnc(-c2ccco2)o1 (configuration not stated) | 11.7 | 14.9 |
| COCc1cccc(C(=O)N2CCCC2)c1 | 16.3 | > 50.1 |
| CCCC(C)N(C)Cc1nnc(-c2ccco2)o1 (configuration not stated) | 5.32 | 29.5 |
| CC(C)C(C)N(C)Cc1nnc(-c2ccco2)o1 (configuration not stated) | 1.38 | > 50.1 |
| CN(C)c1cc(C(=O)Nc2ccccc2C(=O)NC(C)(C)C)ccn1 | > 50.1 | > 50.1 |
| CC(C)CN(Cc1nnc(-c2ccco2)o1)CC(C)C | 4.4 | > 50.1 |
| CN(CCc1ccccn1)Cc1nccn1Cc1ccccc1 | 43.5 | > 50.1 |
| CC(C)(C)n1cc(NC(=O)C2CN(Cc3ccccc3)CCO2)cn1 (configuration not stated) | > 50.1 | > 50.1 |
| COc1ccc(CNC(C)c2ccc(Cl)c(Cl)c2)c(OC)c1OC (configuration not stated) | 45.1 | > 50.1 |
| COc1c(C)cnc(CSc2nnc(N)s2)c1C | > 50.1 | > 50.1 |
| O=C1CCCN1Cc1nnc(SCc2ccc3c(c2)CCC3)o1 | 22 | 46.5 |
| Cc1ccc(CNc2ccccc2-n2ccc(C)n2)nc1 | > 50.1 | 24.5 |
| CCCC(=O)N(CCCN1CCOCC1)c1nc2c(C)ccc(Cl)c2s1 | 12.8 | 19.2 |
| CCCC(=O)N(CCCN1CCOCC1)c1nc2c(C)c(C)ccc2s1 | > 50.1 | > 50.1 |
| COCCN1C[C@@H]2CN(c3cc(OC)ncn3)CCC[C@]2(C(=O)O)C1 | > 50.1 | > 50.1 |
| Cc1ccc(CN2CCOC3(CCN(C(=O)C4CC=CC4)CC3)C2)cc1 | 30.5 | 40.9 |
| Cc1ccc(CN2CCC3(CC(=O)N(c4cccc(F)c4)C3)C2)o1 (configuration not stated) | 20.3 | > 50.1 |
| Cc1nnc(N2CC[C@@H](OCC3CC3)[C@@H](Cc3ccccc3)C2)s1 | 38.3 | > 50.1 |
| CC(C)N1[C@H](CN2CCCC2)C[C@@H]2CN(Cc3ccoc3)CC[C@@H]21 | > 50.1 | > 50.1 |
| O=C(CN(C1=NCCCCC1)c1ccc(Cl)cc1)c1ccccc1 | 20.7 | 22.8 |
| O=C(CN(C1=NCCCC1)c1ccccc1)c1ccc(OC(F)F)cc1 | 39.3 | 24.6 |
